What was measured:
IL-12a mRNA = assay: Quantitative RT-PCR of splenocyte mRNA after in vivo dosing: IL-12a; set-up: species or system mouse; conditions: in vivo treated mice vs vehicle; p<0.01; FIG. 4
Procedure: FIG. 4: In vivo 6-(4-tert-butylphenoxy)pyridin-3-amine dosing leads to a downregulation of pro-inflammatory cytokine IL-12a mRNA in mouse spleen. […] Each bar represents the mean±SD (N=3 replicates). (**) p<0.01
In vivo treatment of mice and pharmacodynamic response: Mice experiments were performed in compliance with authorization to perform animal experiments (VD3323). Briefly, 6-8 weeks old wild type C57Bl6 mice were subcutaneously or intraperitoneally dosed with vehicle or compounds for different durations. Mice were sacrificed, spleens were harvested 24 hours post-last dosing. Splenocytes were analyzed for cell surface and intracellular markers expression using flow cytometry. RNA expression analyses were performed using quantitative real time PCR.

IL-6 = assay: Cytokine profiling in human patient plasma (MSD): IL-6; format: in vivo; conditions: human patients, day 3 on treatment vs baseline pre-treatment
Procedure: (§1) Cytokine profiling in human plasma samples: Plasma samples from patients treated with 6-(4-tert-butylphenoxy)pyridin-3-amine were collected and stored at −80° C. until analysed. Cytokine and chemokine profiling was performed using MesoScale Discovery (MSD) platform and three assay panels: 1) Pro-inflammatory panel human, 2) Human IL-6 assay S-Plex, 3) Human IL-10 assay S-Plex.

IFNG = assay: Cytokine profiling in human patient plasma (MSD): IFNG; format: in vivo; conditions: human patients, day 29 on treatment vs baseline pre-treatment
Procedure: as §1

CC(C)(C)c1ccc(Oc2ccc(N)cn2)cc1 [6-(4-tert-butylphenoxy)pyridin-3-amine]
IL-12a transcript in splenocytes (IL-12a mRNA): downregulation | Percentage downregulation of IL-6 in blood plasma (IL-6): 57% (day 3 on treatment) | Percentage downregulation of IFNG in blood plasma (IFNG): 90% (day 29 on treatment)

Reference: patent publication US20240269120A1, “Method for Treating an Autoimmune and Inflammatory Disease” (Cellestia Biotech AG, priority 2021, published 2024)
